These results are taken from patent publication US11964990B2, “1,3,4,7-tetrahydro-2H-pyrrolo[3′,2′:5,6]pyrido[2,3-b][1,4]oxazepine bcl-2 inhibitors” (AbbVie Inc., priority 2022, dated 2024).

The test system of one data set is RS4;11 cells. The data set is described as follows: Cell viability assay (CellTiter-Glo) in RS4;11 cell line. To be noted: 24 hours, 10% Human Serum, 50% decrease in cell viability. It is filed as cell-based. The method in brief: (§1)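 RS4;11 or Molt-4 cells (3000 per well) in RPMI 1640 with 10% human serum treated with compound for 24 h, 5% CO2. Viability measured by CellTiter-Glo as percent of control; EC50 from sigmoidal dose-response curves.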
(In ATP-based viability assays light output follows the ATP content of the culture.)

Another data set relates to Molt-4 cells. Kind of data set: Cell viability counter screen assay (CellTiter-Glo) in Molt-4 cells. To be noted: 24 hours, 10% Human Serum, 50% decrease in cell viability. It is filed as cell-based. The method in brief: as §1
(In general: The purpose of a counterscreen is to sort out artefacts and off-target activity.)

For another data set, the target named is Bcl-2 protein (Homo sapiens (Human), UniProt P10415). Kind of data set: TR-FRET binding assay, Bcl-2 (F-Bak peptide probe). To be noted: Bak BH3 peptide probe, Wang's equation. Here is the method:
(§2) Determination of the utility of compounds having Formula (I) or Formula (II) as binders to and inhibitors of anti-apoptotic Bcl-2 proteins was performed using the Time Resolved-Fluorescence Resonance Energy Transfer (TR-FRET) Assay. Tb-anti-GST antibody was purchased from Invitrogen (Catalog No. PV4216).
A Bcl-2 human encoding sequence was cloned into a pET41A vector (Novagen). The protein was expressed with E. coli. BL21(DE3)-T1R strain in OETB autoinduction medium at 30° C. for 25 hours. The cell pellets were resuspended in lysis buffer (50 mM Tris, 140 mM NaCl, 1 mM DTT, 10% Glycerol, 2 mM MgCl2, pH 7.3) and lysed with Microfluidizer. The Bcl-2 protein in clarified cell-lysate was purified with affinity chromatography (GST and Ni-NTA). The eluate was loaded onto a Superdex 75 column and further purified with a Q Sepharose column. The protein was purified on a phenyl hydrophobic interaction column and dialyzed in the storage buffer (50 mM Tris, 50 mM NaCl, 2 mM DTT, pH 7.5) and stored at −80° C.
(§3) […] of a protein (Bcl-2 or Bcl-xL)/probe/antibody mixture pre-equilibrated for one hour in assay buffer was added to each well at final concentrations listed in Table 6 below.
(§4) The samples were then mixed on a shaker for 1 minute and equilibrated for an additional 3 hours at room temperature. For each assay plate, a probe/antibody and protein/antibody/probe mixture were included as a negative and a positive control, respectively. Fluorescence was measured on the Envision (Perkin Elmer) using a 340/35 nm excitation filter and 520/525 (F-Bak) and 495/510 nm (Tb-labeled anti-GST antibody) emission filters. Inhibition constants (Ki) were determined using Wang's equation (Wang FEBS Lett. 1995, 360, 111-114). The TR-FRET assay can be performed in the presence of varying concentrations of human serum (HS) to determine apparent half maximal inhibitory concentration (IC50) after HS protein binding.
(§5) Inhibition constants were determined using Wang's equation (Wang FEBS Lett. 1995, 360:111-4).

For a further data set, the target named is Bcl-xL protein (Homo sapiens (Human), UniProt Q07817). The data set is described as follows: TR-FRET binding assay, Bcl-xL (F-Bak peptide probe). To be noted: Bak BH3 peptide probe, Wang's equation. Here is the method:
as §2
A human Bcl-xL encoding sequence was cloned into a pET41A vector. The protein was expressed with E. coli. BL21(DE3)-T1R strain in OETB autoinduction medium at 30° C. for 25 hours. The cell pellets were resuspended in lysis buffer (50 mM Tris, 140 mM NaCl, 1 mM DTT, 10% Glycerol, 0.1% Triton X-100, pH 7.5) and lysed with Microfluidizer. The Bcl-xL protein in clarified cell-lysate was purified with GST affinity chromatography. The eluate was dialyzed in the storage buffer (1×PBS, 10% Glycerol, 2 mM DTT, 1 mM Sodium Azide, pH 7.4) and stored at −80° C.
as §3, §4, §5

Data set [1] can be described thus: Bioavailability study: pharmacokinetics after single intravenous or oral dose in mouse. It is filed as in vivo. To be noted: for Vd: read-out: VSS. Here is the method:
Studies were conducted to evaluate the pharmacokinetic profiles of Example 25 herein and Example 2 in WO 2019/040550 after single intravenous or oral dose in mouse. CD-1 mice (male) were obtained from Charles River Laboratories (Wilmington, MA).
The pharmacokinetics of Example 25 herein and Example 2 in WO 2019/040550 were evaluated following single 1 mg/kg intravenous or oral doses in mouse. Example 25 herein and Example 2 in WO 2019/040550 were prepared as a solution in DMSO: Tween 80: PEG-400: Dextrose 5% in Water (5:5:20:70, v/v) for the IV and oral dose mouse studies. The intravenous dose was administered as a slow bolus to the penile vein under isoflurane anesthesia. The oral doses were administrated by gavage. Serial blood samples were obtained […], 0.25, 0.5, 1.0, 4, 6, 9, 12, 24, 32 and 48 hours post dosing and […]. Plasma was separated by centrifugation and stored frozen (<−15° C.) until analysis.
HPLC-MS/MS bioanalytical methods were utilized for the quantitation of Example 25 herein and Example 2 in WO 2019/040550 concentration in plasma. The analytical methods used protein precipitation to extract compound from plasma. All samples were combined with a minimum two volume equivalents of organic solvent containing internal standard, vortexed and then centrifuged to pellet the proteins. Supernatants were used for subsequent analysis by liquid chromatography-tandem mass spectrometry (LC-MS/MS). Studies involving quantitative analysis employed spiked standards in plasma that were processed simultaneously with the samples.
Analytes were separated using reverse phase chromatography on a C8 or C18 column prior to analysis on an API5500™ (or higher) mass spectrometer with a Turbo-Ion Spray source. Peak areas were determined using Sciex Analyst™ 1.6 (or higher) software or Sound Analytics DiscoveryQuant™ 2.0 (or higher) software. Actual concentrations (when required) were calculated by regression analysis of the peak area ratio (parent/internal standard) of the spiked standards versus concentrations.
Peak plasma concentrations (Cm) and the time to peak plasma concentration (Tmax) were determined directly from the plasma concentration data for each animal. The compound plasma concentration data were submitted to multi-exponential curve fitting using WinNonlin software. The area under the plasma concentration-time curve from 0 to t hours after dosing (AUC0-t, t=time of the last measurable plasma concentration) was calculated using the linear trapezoidal rule. The residual area extrapolated to infinity, determined as the final measured plasma concentration (Ct) divided by the terminal plasma elimination rate constant (β), was added to the AUC0-t to produce the total area under the curve (AUC0-∞). The apparent total plasma clearance (CLp) was calculated by dividing the administered dose by the AUC0-∞. Half-life (t1/2) was determined with the following calculation: t1/2=ln (2)/elimination rate constant. The initial volume of distribution (Vc) was calculated as the dose divided by the extrapolated concentration at time=0 (C0). The volume of distribution at steady state, Vss, was estimated as a product of the total plasma clearance (CLp) and the mean residence time (MRT); the terminal-phase volume of distribution, Vβ, was derived from the total plasma clearance value (CLp) divided by the terminal plasma elimination rate constant (β). Oral bioavailability (F) was calculated as the dose-normalized AUC0-∞ (AUC0-∞/D) from the oral dose divided by the corresponding dose normalized AUC0-∞ from intravenous dosing.

Setting [2] is: male, CD-1, mouse, plasma, iv, 1 mg/kg, IV 1 mg/kg, individual animal.
Where [3] appears, read: male, CD-1, mouse, plasma, iv, 1 mg/kg, IV 1 mg/kg, mean.
Where [4] appears, read: male, CD-1, mouse, plasma, po, 1 mg/kg, PO 1 mg/kg, individual animal.
The mark [5] stands for this setting: male, CD-1, mouse, plasma, po, 1 mg/kg, PO 1 mg/kg, mean.

pEC50, pKi: −log10 of the molar value. Values joined by “and” are separate entries in the source; they are usually repeats but may differ in a detail not shown here. Equal entries are not always repeated. Where two headings read alike, the source gives them in different places.

Chain of Bcl-2 protein (P10415 other isoform, or with tags, fused parts or gaps): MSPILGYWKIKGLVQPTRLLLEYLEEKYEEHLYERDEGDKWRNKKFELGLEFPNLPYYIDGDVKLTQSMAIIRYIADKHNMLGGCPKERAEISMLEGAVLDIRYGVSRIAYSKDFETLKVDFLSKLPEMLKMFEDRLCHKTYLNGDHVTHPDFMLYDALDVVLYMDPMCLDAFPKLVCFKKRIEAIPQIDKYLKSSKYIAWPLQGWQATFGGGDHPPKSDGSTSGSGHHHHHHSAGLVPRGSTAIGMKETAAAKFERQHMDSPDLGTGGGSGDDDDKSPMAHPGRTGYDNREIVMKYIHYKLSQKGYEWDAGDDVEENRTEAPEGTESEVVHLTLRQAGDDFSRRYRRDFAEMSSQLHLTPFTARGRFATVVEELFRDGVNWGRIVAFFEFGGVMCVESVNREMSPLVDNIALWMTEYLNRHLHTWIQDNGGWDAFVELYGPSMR
Chain of Bcl-xL protein (Q07817 other isoform, or with tags, fused parts or gaps): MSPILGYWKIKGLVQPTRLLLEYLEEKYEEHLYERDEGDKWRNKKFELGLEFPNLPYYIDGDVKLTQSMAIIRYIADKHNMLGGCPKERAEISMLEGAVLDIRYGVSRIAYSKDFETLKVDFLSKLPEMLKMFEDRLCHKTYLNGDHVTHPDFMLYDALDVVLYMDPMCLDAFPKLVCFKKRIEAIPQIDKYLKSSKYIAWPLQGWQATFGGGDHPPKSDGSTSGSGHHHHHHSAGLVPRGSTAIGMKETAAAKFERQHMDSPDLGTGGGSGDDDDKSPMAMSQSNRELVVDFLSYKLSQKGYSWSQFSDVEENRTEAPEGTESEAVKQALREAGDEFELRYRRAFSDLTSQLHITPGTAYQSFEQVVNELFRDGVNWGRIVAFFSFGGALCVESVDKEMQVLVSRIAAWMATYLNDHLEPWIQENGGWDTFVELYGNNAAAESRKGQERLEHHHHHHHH

For `CC1(C)CC(c2ccc(Cl)cc2)=C2CN3CCN(c4ccc(C(=O)NS(=O)(=O)c5ccc(OC[C@H]6CC[C@](C)(O)CC6)c(Cl)c5)c(N5CCCOc6nc7[nH]ccc7cc65)c4)C[C@H]3COCCCO[C@@H]2C1` [Example 43, N-((3-chloro-4-(((1r,4r)-4-hydroxy-4-methylcyclohexyl)methoxy)phenyl)sulfonyl)-4-((4aS,10aR)-14-(4-chlorophenyl)-12,12-dimethyl-1,2,4a,5,8,9,10a,11,13,15-decahydro-7H,12H-benzo[f]pyrazino[2,1-c][1,8]dioxa[4]azacycloundecin-3(4H)-yl)-2-(3,4-dihydro-2H-pyrrolo[3′,2′:5,6]pyrido[2,3-b][1,4]oxazepin-1(7H)-yl)benzamide], the pEC50 with RS4;11 cells was 7.75; with Molt-4 cells it was less than 5.00. The results for the pKi at Bcl-2 protein and on Bcl-xL protein were 10.07 and 7.53, respectively.
The like results for `CO[C@]1(CF)C[C@@H](CNc2ccc(S(=O)(=O)NC(=O)c3ccc(N4CCN5CC6=C(c7ccc(Cl)cc7)CC(C)(C)C[C@H]6OCCCOC[C@@H]5C4)cc3N3CCCOc4nc5[nH]ccc5cc43)cc2[N+](=O)[O-])C1` [Example 48, 4-((4aS,10aR)-14-(4-chlorophenyl)-12,12-dimethyl-1,2,4a,5,8,9,10a,11,13,15-decahydro-7H,12H-benzo[f]pyrazino[2,1-c][1,8]dioxa[4]azacycloundecin-3(4H)-yl)-2-(3,4-dihydro-2H-pyrrolo[3′,2′:5,6]pyrido[2,3-b][1,4]oxazepin-1(7H)-yl)-N-((4-((((1r,3r)-3-(fluoromethyl)-3-methoxycyclobutyl)methyl)amino)-3-nitrophenyl)sulfonyl)benzamide] were, in that order, 7.74, 5.23, 9.69 and 7.54.
Consider `COC[C@]1(F)C[C@H](CNc2ccc(S(=O)(=O)NC(=O)c3ccc(N4CCN5CC6=C(c7ccc(Cl)cc7)CC(C)(C)C[C@H]6OCCCOC[C@@H]5C4)cc3N3CCCOc4nc5[nH]ccc5cc43)cc2[N+](=O)[O-])C1` [Example 47, 4-((4aS,10aR)-14-(4-chlorophenyl)-12,12-dimethyl-1,2,4a,5,8,9,10a,11,13,15-decahydro-7H,12H-benzo[f]pyrazino[2,1-c][1,8]dioxa[4]azacycloundecin-3(4H)-yl)-2-(3,4-dihydro-2H-pyrrolo[3′,2′:5,6]pyrido[2,3-b][1,4]oxazepin-1(7H)-yl)-N-((4-((((1r,3r)-3-fluoro-3-(methoxymethyl)cyclobutyl)methyl)amino)-3-nitrophenyl)sulfonyl)benzamide], for which the values for the pEC50 in the data set with RS4;11 cells and with Molt-4 cells were 7.96 and less than 5.00, respectively. The pKi is 9.55 on Bcl-2 protein and 7.59 on Bcl-xL protein.
`CO[C@@H]1CC[C@@H](CNc2ccc(S(=O)(=O)NC(=O)c3ccc(N4CCN5CC6=C(c7ccc(Cl)cc7)CC(C)(C)C[C@H]6OCCCOC[C@@H]5C4)cc3N3CCCOc4nc5[nH]ccc5cc43)cc2[N+](=O)[O-])OC1` [Example 25, 4-((4aS,10aR)-14-(4-chlorophenyl)-12,12-dimethyl-1,2,4a,5,8,9,10a,11,13,15-decahydro-7H,12H-benzo[f]pyrazino[2,1-c][1,8]dioxa[4]azacycloundecin-3(4H)-yl)-2-(3,4-dihydro-2H-pyrrolo[3′,2′:5,6]pyrido[2,3-b][1,4]oxazepin-1(7H)-yl)-N-((4-((((2S,5R)-5-methoxytetrahydro-2H-pyran-2-yl)methyl)amino)-3-nitrophenyl)sulfonyl)benzamide]: the figures for the pEC50 with RS4;11 cells and in the data set on Molt-4 cells were 8.75 and 5.89, respectively. Moreover, the Vβ was 0.95 L/kg and 1.0 L/kg and 0.90 L/kg in data set [1] (IV 1 mg/kg, plasma, individual animal); 0.96 L/kg in data set [1] (IV 1 mg/kg, plasma, mean). Besides, the Tmax in data set [1] (male, CD-1, PO 1 mg/kg, plasma, individual animal) came to 4 h. For the same molecule, the exposure (AUC) was found to be 15800 ng·h/mL in data set [1] (setting [2]), 13300 ng·h/mL in data set [1] (setting [3]), 3580 ng·h/mL in data set [1] (setting [4]) and 4130 ng·h/mL in data set [1] (setting [5]). In addition, the C0 in data set [1] (setting [2]) is 4010 ng/mL; in data set [1] (setting [3]), 4160 ng/mL. The MRT in data set [1] (setting [2]) was found to be 12 h; in data set [1] (setting [3]) it was 11 h. Moreover, the values for the half-life in data set [1] (setting [2]) and in data set [1] (setting [4]) were 10 h and 7.5 h, respectively. Moreover, the clearance in data set [1] (male, CD-1, mouse, plasma, iv, 1 mg/kg, IV 1 mg/kg, plasma, individual animal, read-out: CLP (converted)) was 1.05 mL/min/kg. The Vd in data set [1] (male, CD-1, mouse, plasma, iv, 1 mg/kg, IV 1 mg/kg, plasma, individual animal) is 0.78 L/kg; in data set [1] (male, CD-1, mouse, plasma, iv, 1 mg/kg, IV 1 mg/kg, plasma, mean) it was 0.82 L/kg. In addition, the results for the Cmax in data set [1] (setting [4]) and in data set [1] (setting [5]) were 210 ng/mL and 254 ng/mL, respectively. Besides, the bioavailability in data set [1] (male, CD-1, plasma, PO 1 mg/kg vs IV 1 mg/kg, mean, read-out: F (oral bioavailability)) worked out at 31%.
For the molecule `CC1(C)CC(c2ccc(Cl)cc2)=C2CN3CCN(c4ccc(C(=O)NS(=O)(=O)c5ccc(NCC6(O)COC6)c([N+](=O)[O-])c5)c(N5CCCOc6nc7[nH]ccc7cc65)c4)C[C@H]3COCCCO[C@@H]2C1` [Example 17, 4-((4aS,10aR)-14-(4-chlorophenyl)-12,12-dimethyl-1,2,4a,5,8,9,10a,11,13,15-decahydro-7H,12H-benzo[f]pyrazino[2,1-c][1,8]dioxa[4]azacycloundecin-3(4H)-yl)-2-(3,4-dihydro-2H-pyrrolo[3′,2′:5,6]pyrido[2,3-b][1,4]oxazepin-1(7H)-yl)-N-((4-(((3-hydroxyoxetan-3-yl)methyl)amino)-3-nitrophenyl)sulfonyl)benzamide], the results for the pEC50 with RS4;11 cells and in the data set with Molt-4 cells were 8.55 and 6.14, respectively.

For orientation: pEC50 means −log10 of the EC50, conventionally taken in molar units. The term pKi denotes −log10 of the Ki, conventionally taken in molar units. Low values mean a high Ki, high ones a low Ki. One may read the Tmax as the time at which the peak concentration occurs. In general, AUC refers to concentration integrated over time. Higher therefore signals high exposure. For orientation: MRT means the average time that molecules of a dose stay in the body. For orientation: half-life means the time needed for the level to fall by half in the phase considered. Low readings indicate fast loss, high ones slow loss. One may read the Cmax as the peak of the concentration-time curve. By bioavailability is commonly meant dose-corrected exposure relative to a reference, in per cent.
